Test results reported in patent US10322032B2, “Absorbent article comprising a fragrance or odor control composition” (The Procter & Gamble Company, priority 2013, dated 2019).

Experiments:
[1] = log P, n-octanol/water partition coefficient (EPA OPPTS 830.7550 shake flask method); format: physicochemical; details: partitioning between octanol and water; for logP: n-octanol/water
Text: The use of log P values is well known in the chemical arts as representing the relative affinity that a material has for partitioning between octanol and water, so that a material that partitions more readily into octanol would tend to be more lipophillic and have a higher log P value than a material that partitions less readily into octanol. […] 1996, under the title “Product Properties Test Guidelines—OPPTS 830.7550 Partition Coefficient (n-Octanol/Water), Shake flask method.” which description is incorporated herein by reference. In following this EPA method in all instances where a recommended procedure is described (such as number of rotations of the shaker) the recommended procedure should be followed. For the analytical determination of the substance in the two phases a skilled person will know what analytical method to use, gas chromatography (GC) can be preferably used, while HPLC can be used in case GC is not suitable.

[2] = Kovats Retention Index by gas chromatography on DB-5 column against n-alkane standards; format: physicochemical; details: GC, non-isothermal, C8-C22 n-alkane standards
Text: Kovats Index as it is known in the art, is defined as the selective retention of perfume raw materials (PRMs) onto chromatographic columns based on the retention volume of the substance with respect to that to a homologous series of n-alkane standards.
The Kovats Index in the present application can be experimentally derived using an Agilent Technologies 6890 gas chromatogram with Flame Ionization Detector (FID), or equivalent using a DB-5 (5% phenyl-methylpolysiloxane) column 30 m×0.25 mm i.d., with a 0.25 micron film thickness available from Agilent Technologies. Chromatographic conditions are 1 mL/min of helium carrier with constant flow programming, a temperature program of 50° C. to 300° C. at […] temperature 350° C., split injection at 300° C. Different chromatographic conditions may be required to achieve separation of the analytes of interest and can be readily adjusted by one skilled in the art. A linear alkane hydrocarbon standard mix (C8-C22 available from Aldrich Chemical Company or equivalent) is injected and the retention time for each component is recorded. The test sample (appropriately diluted in a suitable solvent) is injected under the same conditions, and the retention time for each component of interest is recorded. The Kovats Index under non-isothermal conditions is calculated for each component of interest in the test sample using the equation: KI=100n+100[(tsubstance−tn)/(tn+1−tn)] Where: • t=the uncorrected retention time of a peak • unknown=the peak of interest • n=the number of carbon atoms in the smaller alkane whose peak is adjacent to the peak of interest

SMILES	logP [1]	KI (Kovats Retention Index) [2]	Log P [1]
CCCCC(CC)COC(=O)c1ccccc1O (stereo not shown) [2-Ethylhexyl salicylate]	4.92	1889.5	–
O=C(Oc1ccccc1)c1ccccc1O [Phenyl salicylate]	3.49	1851.1	–
O=C1CCCCCCCCC/C=C/CCCO1 [Habanolide]	–	1862.9	4.32
O=C(OC1CCCCC1)c1ccccc1O [Cyclohexyl salicylate]	4.15	1821	–
O=C1CCCCC/C=C/CCCCCCCCO1 [trans-ambrettolide]	–	1961.1	4.64
CC(C)CCOC(=O)c1ccccc1O [Isoamyl salicylate]	3.74	1616.4	–
CCCCOC(=O)c1ccccc1O [Butyl salicylate]	3.58	1572.9	–
CC(C)=CCOC(=O)c1ccccc1O [Prenyl salicylate]	3.05	1655.3	–
CCCCCCOC(=O)c1ccccc1O [n-Hexyl salicylate]	4.58	1765.1	–
O=C1CCCCCCCCCCCCCCO1 [Exaltolide]	4.81	1882	–
CCC(=O)OCC(C)(C)OC(C)C1CCCC(C)(C)C1 (stereo not shown) [Helvetolide]	–	1773	5.56
CCCCCOC(=O)c1ccccc1O [amyl salicylate]	4.09	1668.8	–
O=C(OCc1ccccc1)c1ccccc1O [Benzyl salicylate]	3.56	1920.3	–
Cc1ccc(OC(=O)c2ccccc2O)cc1 [p-Cresyl salicylate]	4.06	1944.5	–
